# PMC7942396, “Drug Repurposing Screen for Compounds Inhibiting the Cytopathic Effect of SARS-CoV-2” (Frontiers in Pharmacology, 2021)
# Where a name gives a salt, the structure may show the parent alone. Read-outs that look alike come from different tables or passages of the source.
# Key:
# [1] = system: SARS-CoV-2 (USA_WA1/2020); assay: microbe, parasite or virus in culture; assay type: cell-based; conditions: for EC50: read-out: CPE EC50
# [2] = in vitro; conditions: African green monkey
# [3] = system: Vero E6 cells; conditions: Vero E6 cells without virus; for CC50: read-out: Cytotox CC50
# [4] = Severe acute respiratory syndrome coronavirus 2, Vero C1008, SARS-CoV-2 CPE assay, Vero E6 cells, read-out: CPE % Efficacy
# [5] = Severe acute respiratory syndrome coronavirus 2, Vero C1008, SARS-CoV-2 CPE assay, Vero E6 cells
# [6] = Severe acute respiratory syndrome coronavirus 2, Vero C1008, SARS-CoV-2 CPE assay, Vero E6 cells, confirmed anti-SARS-CoV-2 compounds
# [7] = Severe acute respiratory syndrome coronavirus 2, Vero C1008, SARS-CoV-2 CPE assay, Vero E6 cells, efficacy, read-out: CPE % Efficacy
# [8] = Severe acute respiratory syndrome coronavirus 2, Vero C1008, 72 h
# [9] = Severe acute respiratory syndrome coronavirus 2, Vero C1008, […], DMSO 0%, no-virus control 100%, hit confirmation, read-out: CPE % efficacy
# [10] = SARS-CoV-2 CPE assay, Vero E6 cells
# [11] = SARS-CoV-2 CPE assay, Vero E6 cells, confirmed anti-SARS-CoV-2 compounds
# [12] = SARS-CoV-2 CPE assay, Vero E6 cells, efficacy
# [13] = […], DMSO 0%, no-virus control 100%, hit confirmation
structure (smiles),measurement,setting,value
O=C1Nc2ccc(Cl)cc2[C@@](C#CC2CC2)(C(F)(F)F)O1 [Efavirenz],Emax,[1]; [4],90.6%
same,EC50,[1]; [5],14.1 µM
same,cytotoxicity,[2],24.3%
CC(=O)O[C@@H]1C[C@H](O)[C@@]23CO[C@@H](O)[C@]1(C)[C@@H]2C[C@@H](O)[C@]1(C)[C@@H]3C(=O)[C@H](OC(C)=O)[C@@]2(C)[C@H](c3ccoc3)C[C@H]3O[C@]321 [Toosendanin],EC50,[1]; [6],1.19 µM
same,Emax,[1]; [7],88.9%
same,CC50,[2],2.66 µM
same,cytotoxicity,[2],40.9%
CN(C)CCCN1c2ccccc2CCc2ccc(Cl)cc21 [Clomipramine hydrochloride],Emax,[1]; [7],91.6%
same,cytotoxicity,[2],33.2%
Cc1cc(O[C@@H](CCC(F)(F)F)c2ccc(C(=O)NCCC(=O)O)cc2)cc(C)c1-c1ccc(C(C)(C)C)cc1 [Adomeglivant],EC50,[1]; [6],3.16 µM
same,Emax,[1]; [7],49.2%
same,cytotoxicity at 72 h,[2],37%
CCn1c(=O)c(-c2cc(NC(=O)Nc3ccccc3)c(F)cc2Br)cc2cnc(NC)cc21 [DCC-2618],Emax,[1]; [4],65.4%
same,EC50,[1]; [5],12.6 µM
same,CC50 at 72 h,[2],11.2 µM
same,cytotoxicity at 72 h,[2],48.5%
O[C@H]1[C@H]2c3cc4c(cc3CN3CCC(=C[C@@H]1O)[C@H]23)OCO4 [Lycorine hydrochloride],EC50,[1]; [6],0.63 µM
same,Emax,[1]; [7],34.6%
same,CC50,[2],3.55 µM
same,cytotoxicity,[2],90.6%
"CC(C(O)c1ccccc1)N(C)CCOC(c1ccccc1)c1ccccc1 (centres unmarked) [Difeterol, reference compound]",EC50,[1]; [8],10 µM
same,Emax,[1]; [9],113%
same,cytotoxicity at 72 h,[2],< 30%
Cc1nc(Nc2ccc(F)cc2)nc(N2CCc3ccccc3C2C)c1C (centres unmarked) [Revaprazan HCl],EC50,[1]; [6],5.01 µM
same,Emax,[1]; [7],60.4%
same,cytotoxicity at 72 h,[2],49.9%
Nc1nc(Nc2ccc3c(c2)CC[C@@H](N2CCCC2)CC3)nn1-c1cc2c(nn1)-c1ccccc1CCC2 [Bemcentinib],EC50,[1]; [6],3.55 µM
same,Emax,[1]; [7],69.6%
same,CC50 at 72 h,[2],11.2 µM
same,cytotoxicity at 72 h,[2],115%
COC(=O)C1=C(C)NC(C)=C(C(=O)OCCN(C)Cc2ccccc2)C1c1cccc([N+](=O)[O-])c1 (centres unmarked) [Nicardipine],Emax,[1]; [4],56.3%
same,EC50,[1]; [5],12.6 µM
same,CC50,[2],12.6 µM
same,cytotoxicity,[2],32.8%
CN1CCC(=C2c3ccccc3C=Cc3ccccc32)CC1 [Cyproheptadine hydrochloride],Emax,[1]; [7],50%
same,CC50,[2],12.6 µM
same,cytotoxicity,[2],20.2%
CC(=O)Oc1ccccc1C(=O)Nc1ncc([N+](=O)[O-])s1 [Nitazoxanide],EC50,[1]; [6],6.31 µM
same,Emax,[1]; [7],73.7%
same,CC50 at 72 h,[2],12.6 µM
same,cytotoxicity at 72 h,[2],54.7%
COc1cc(C(C)=O)ccc1OCCCN1CCC(c2noc3cc(F)ccc23)CC1 [Iloperidone],Emax,[1]; [4],108%
same,EC50,[1]; [5],12.6 µM
same,CC50 at 72 h,[2],15.8 µM
same,cytotoxicity at 72 h,[2],16.4%
Oc1c(I)cc(Cl)c2cccnc12 [Clioquinol],EC50,[1]; [6],6.31 µM
same,Emax,[1]; [7],55.1%
same,CC50 at 72 h,[2],3.16 µM
same,cytotoxicity at 72 h,[2],62.2%
COc1c(C)cnc(Cn2cnc3c(Cl)nc(N)nc32)c1C [CNF-2024],EC50,[1]; [6],2.24 µM
same,Emax,[1]; [7],51.3%
same,CC50,[2],0.35 µM
same,cytotoxicity,[2],21.1%
COc1cc(O)c2c(c1)[C@H]1O[C@@H]1C[C@H](O)[C@H](O)C(=O)/C=C\C[C@H](C)OC2=O [Hypothemycin],Emax,[1]; [4],81.2%
same,EC50,[1]; [5],12.6 µM
same,CC50,[2],12.6 µM
same,cytotoxicity,[2],60.1%
"Fc1ccc(C(c2ccc(F)cc2)N2CCN(C/C=C/c3ccccc3)CC2)cc1 [Flunarizine, reference compound]",Emax,[1]; [9],94.1%
same,cytotoxicity,[2],< 30%
CN(C)CC/C=C1\c2ccccc2CSc2ccccc21 [Dosulepin hydrochloride],Emax,[1]; [4],30.8%
same,EC50,[1]; [5],14.1 µM
same,CC50,[2],12.6 µM
same,cytotoxicity,[2],17.2%
"COC(=O)[C@H]1[C@H]2C[C@@H]3c4[nH]c5cc(OC)ccc5c4CCN3C[C@H]2C[C@@H](OC(=O)/C=C/c2ccc(O)c(OC)c2)[C@@H]1OC [Rescimetol, reference compound]",EC50,[1]; [8],8.9 µM
same,Emax,[1]; [9],81.8%
same,cytotoxicity at 72 h,[2],< 30%
CN1CCN(C(c2ccccc2)c2ccc(Cl)cc2)CC1 (centres unmarked) [Chlorcyclizine],Emax,[1]; [4],67.4%
same,EC50,[1]; [5],12.6 µM
same,CC50 at 72 h,[2],22.4 µM
same,cytotoxicity at 72 h,[2],18%
CN(C)CCCN1c2ccccc2CCc2ccccc21 [Imipramine],Emax,[1]; [4],57.6%
same,EC50,[1]; [5],12.6 µM
same,cytotoxicity,[2],0%
"CCCN1CCN(c2ccc(C(=O)NC3(C(=O)NCC#N)CCCCC3)cc2)CC1 [Balicatib, reference compound]",EC50,[1]; [8],2 µM
same,Emax,[1]; [9],100%
same,cytotoxicity at 72 h,[2],< 30%
CCCNCC(O)COc1ccccc1C(=O)CCc1ccccc1 (centres unmarked) [Propafenone hydrochloride],Emax,[1]; [4],61.6%
same,EC50,[1]; [5],14.1 µM
same,cytotoxicity,[2],0%
CN(C)c1cc2c(cc1Sc1nc3c(N)nccc3n1CCNCC(C)(C)C)OCO2 [CUDC-305],EC50,[1]; [6],2.51 µM
same,Emax,[1]; [7],74.5%
same,CC50 at 72 h,[2],0.71 µM
same,cytotoxicity at 72 h,[2],27.7%
"CC(C)(O)CNc1ncc(-c2ccnc(Nc3ccnc(Cl)c3)n2)c(CC2CC2)n1 [VPS34-IN1, reference compound]",Shape of concentration-response in the CPE assay,[1]; Figure 3,bell-shaped concentration-responses due to cytotoxicity
same,EC50,[1]; [8],0.63 µM
same,Emax,[1]; [9],103%
same,CC50,[2],10 µM
O=c1c2ccccc2[se]n1-c1ccccc1 [Ebselen],EC50,[1]; [6],11.2 µM
same,Emax,[1]; [7],38.1%
same,cytotoxicity at 72 h,[2],0%
c1ccc(-c2cc(CCC3CCNCC3)c3ccccc3n2)cc1 [Pipequaline],EC50,[1]; [6],10 µM
same,Emax,[1]; [7],33.3%
same,CC50 at 72 h,[2],12.6 µM
same,cytotoxicity at 72 h,[2],108%
"CCCN(CCC)C(=O)C(CCC(=O)OCCCN1CCN(CCOC(=O)Cc2c(C)n(C(=O)c3ccc(Cl)cc3)c3ccc(OC)cc23)CC1)NC(=O)c1ccccc1 (centres unmarked) [Proglumetacin, reference compound]",EC50,[1]; [8],10 µM
same,Emax,[1]; [9],87.6%
same,cytotoxicity at 72 h,[2],< 30%
c1ccc(-c2ccc(C(c3ccccc3)n3ccnc3)cc2)cc1 (centres unmarked) [Bifonazole],EC50,[1]; [6],10 µM
same,Emax,[1]; [7],36.4%
same,cytotoxicity,[2],24.5%
N#Cc1ccc2c(c1)N(CCCN1CCC(O)CC1)c1ccccc1S2 [PERICIAZINE],Emax,[1]; [4],107%
same,EC50,[1]; [5],12.6 µM
same,cytotoxicity,[2],23.1%
CCc1ccc(N(CC(C)C)S(=O)(=O)c2ccc(OCC3CCOCC3)c(CO)c2)cc1 [GSK-2981278],Emax,[1]; [4],36%
same,EC50,[1]; [5],14.1 µM
same,CC50 at 72 h,[2],12.6 µM
same,cytotoxicity at 72 h,[2],51.1%
Cc1ccc(NC(=O)Nc2cc(C(F)(F)F)ccc2F)cc1Nc1ccc2c(c1)NC(=O)/C2=C\c1ccc[nH]1 [GNF-5837],EC50,[1]; [6],3.16 µM
same,Emax,[1]; [7],84%
same,CC50,[2],8.91 µM
same,cytotoxicity,[2],61.4%
CCOC(=O)c1c(CSc2ccccc2)n(C)c2cc(Br)c(O)c(CN(C)C)c12 [Arbidol],EC50,[1]; [6],11.2 µM
same,Emax,[1]; [7],105%
same,CC50,[2],12.6 µM
same,cytotoxicity,[2],17.3%
Clc1ccc2c(c1)CCc1cccnc1C2=C1CCNCC1 [Desloratadine],cytotoxicity,[2],14.2%
COc1cc(C(=O)NC(=N)Nc2ccc(C)c(NC(=O)c3ccc(-c4ccccc4)cc3)c2)cc(OC)c1OC [MRT-83],CPE % Efficacy,[1]; [10],56.4%
same,EC50,[1]; [10],11.2 µM
same,% Cytotox,[3]; cytotoxicity counter-assay,37.9%
same,CC50,[3]; cytotoxicity counter-assay,10 µM
Cc1c(NC(=O)OC[C@@H]2COCCN2)cn2ncnc(Nc3ccc4c(cnn4Cc4cccc(F)c4)c3)c12 [AC480 (BMS-599626)],EC50,[1]; [11],11.2 µM
same,CPE % Efficacy,[1]; [12],62.3%
same,% Cytotox,[3]; cytotoxicity counter-assay,67.2%
same,CC50,[3]; cytotoxicity counter-assay,12.6 µM
CCCCOC(=O)c1ccnc2cc(C(OCCN3CCCCC3)c3ccccc3C)sc12 (centres unmarked) [NCGC00481621],EC50,[1]; [11],10 µM
same,CPE % Efficacy,[1]; [12],88.9%
same,% Cytotox,[3]; cytotoxicity counter-assay,35.5%
same,CC50,[3]; cytotoxicity counter-assay,12.6 µM
"CN(C)CCC=C1c2ccccc2C(C)(C)c2ccccc21.Cl [Melitracen hydrochloride, reference compound]",CPE % Efficacy,[1]; [13],97.1%
same,EC50,[1],10 µM
same,% Cytotox,[3]; 72 h,<30%
"CCC[C@@H](NC(=O)N1C(=O)C(CC)(CC)[C@@H]1Oc1ccc(C(=O)N2CCN(C)CC2)cc1)c1ccc2c(c1)OCO2 [DMP 777, reference compound]",CPE % Efficacy,[1]; [13],92.5%
same,EC50,[1],10 µM
same,% Cytotox,[3]; 72 h,<30%
CN1CCN(S(=O)(=O)c2ccc(-c3cnc(N)c(C(=O)Nc4cccnc4)n3)cc2)CC1 [AZD-2858],CPE % Efficacy,[1]; [12],80.0%
same,% Cytotox,[3]; cytotoxicity counter-assay,41.0%
same,CC50,[3]; cytotoxicity counter-assay,12.6 µM
CCCCCCOc1ccc(C(=N)N(CCCC)CCCC)c2ccccc12.Cl [Bunamidine hydrochloride],EC50,[1]; [11],4.47 µM
same,CPE % Efficacy,[1]; [12],84.9%
same,% Cytotox,[3]; cytotoxicity counter-assay,109.2%
same,CC50,[3]; cytotoxicity counter-assay,11.2 µM
O=S(=O)(NCC1CC1)c1ccc(Nc2nccc(N3CCCc4cc(O)ccc43)n2)cc1 [Pyrintegrin],EC50,[1]; [11],0.79 µM
same,CPE % Efficacy,[1]; [12],76.3%
same,% Cytotox,[3]; cytotoxicity counter-assay,70.3%
same,CC50,[3]; cytotoxicity counter-assay,3.98 µM
Cc1cc(N2CCN(C(=O)Oc3ccc(-c4ccccc4)cn3)CC2)c2ccccc2n1 [NCGC00386928],CPE % Efficacy,[1]; [10],63.4%
same,EC50,[1]; [10],12.6 µM
same,% Cytotox,[3]; cytotoxicity counter-assay,68.1%
same,CC50,[3]; cytotoxicity counter-assay,12.6 µM
"C/C1=C/CCC2=CC(OC2=O)C(C)(C)/C=C\C1=O (centres unmarked) [Asteriscunolide D, reference compound]",CPE % Efficacy,[1]; [13],93.3%
same,EC50,[1],10 µM
same,% Cytotox,[3]; 72 h,<30%
"Cn1nc(C(C)(C)C)cc1C(=O)N[C@@H](Cc1cccc(Cl)c1)C(=O)NCC#N [Cathepsin Inhibitor 1, reference compound]",CPE % Efficacy,[1]; [13],114.4%
same,EC50,[1],0.25 µM
same,% Cytotox,[3]; 72 h,<30%
